We go through two molecules from patent US9636314B2, “Medicament for treatment of non-insulin dependent diabetes mellitus, hypertension and/or metabolic syndrome” (Stevia Limited, priority 2001, dated 2017).

Entries after “also recorded” stand apart in the source; their conditions may differ.

Data set [1] concerns isolated mouse islets. As to the kind of experiment: glucose-stimulated insulin secretion from isolated mouse islets. In kind it is cell-based. The settings on record: for maximal stimulatory dose / glucose-stimulated insulin secretion: NMRI mouse islets; for glucose-stimulated insulin secretion: 16.7 mmol/l, 10^−9-10^−3 mol/l. Here is the method:
Islet from 6-10 NMRI mice were isolated and incubated in the presence of 16.7 mmol/l and 10^−9-10^−3 mol/l stevioside or 10^−9-10^−3 mol/l steviol. The results of these tests are illustrated in FIGS. 4a and 4b where each column represents mean±SEM from 24 incubations of single islets. Black bars in FIG. 4a indicate that stevioside is present and hatched bars indicate that stevioside is absent. Black bars in FIG. 4b indicate that steviol is present and hatched bars indicate that steviol is absent. The influence of the maximal stimulatory doses of 10^−3 mol/l stevioside and 10^−6 mol/l steviol was studied in NMRI mouse islets over a range between 0 and 16.7 mmol/l glucose. […] Black bars in FIG. 7a indicate that stevioside is present and hatched bars indicate that stevioside is absent. Black bars in FIG. 7b indicate that steviol is present and hatched bars indicate that steviol is absent.

Data set [2] has as its system rats. As to the kind of experiment: intravenous administration to rats (earlier work of the inventors). In kind it is in vivo, rat. The settings on record: i.v.
For data set [3] the following is noted: six in vitro and one in vivo mutagenicity assays; cited from earlier work.
The subject of data set [4] is mice. The settings on record: mouse, in vivo; cited from earlier work.
Data set [5] concerns rats. The settings on record: rat, in vivo; cited from earlier work.
The test system of data set [6] is hamsters. The settings on record: cited from earlier work.
Data set [7] has as its system Salmonella typhirmurium strains. The settings on record: Salmonella typhimurium TA 98 and TA 100; cited from earlier work.
Data set [8] relates to GK rats. The experiment in a line: i.v. glucose tolerance test with stevioside in GK rats (plasma glucose and insulin). The settings on record: 2.0 g glucose/kg + 0.2 g stevioside/kg i.v. In kind it is in vivo, rat. Here is the method:
In the following examples, the type II diabetic Goto-Kakizaki (GK) rats originated from Takeda Chemical Ind., Tokyo, Japan and were bred locally. As examples of the effects of a compound including the chemical formulas II, stevioside was tested on normal Wistar rats and on GK rats. 2.0 g glucose/kg body weight and 0.2 g stevioside/kg body weight were dissolved in 0.9% saline and infused intravenously. The plasma glucose and insulin levels were measured over a period of 2 hours. The results are shown in FIGS. 2a, 2b, 3a and 3b, were the O-O series (n=6 for Wistar and n=14 for GK) illustrate glucose infused alone and the (2)-(2) series (n=6 for Wistar and n=12 for GK) illustrate the combined glucose and stevioside infusion. Data are given as mean±SEM.

In data set [9] the test system is GK rats. As to the kind of experiment: plasma glucagon during glucose tolerance test in GK rats. In kind it is in vivo, rat. The settings on record: stevioside 0.2 g/kg i.v. bolus, glucose 2.0 g/kg. On the procedure: During a glucose tolerance test, an intravenous bolus of stevioside of 0.2 g/kg body weight was injected in GK rats (the (2)-(2) serie (n=6)). GK rats receiving 0.9% saline intravenously served as controls (the O-O serie (n=6)). Glucose 2.0 g/kg body weight was administered as a bolus at timepoint 0 min. The plasma glucagon responses are shown as mean±SEM in FIGS. 5a (control) and 5b (GK). The plasma glucagon was suppressed in the stevioside treated GK rat.

For data set [10], the system named is GK rats. As to the kind of experiment: blood pressure during 6 weeks treatment of GK rats with stevioside. It counts as in vivo, rat. The settings on record: 0.025 g/kg/24 h in drinking water, detectable after 2 weeks, then stable. Here is the method: GK rats were treated with stevioside 0.025 g/kg body weight/24 h for 6 weeks. Stevioside was administered in the drinking water. GK rats receiving drinking water with 0.111 g D-glucose/kg body weight/24 h served as controls. Systolic (FIG. 6a, control: O-O series, stevioside-treated: (2)-(2) series) and diastolic (FIG. 6b, control: O-O series, stevioside-treated: (2)-(2) series) blood pressures were measured on the tail.

In data set [11] the test system is type II diabetic patients. The experiment in a line: acute paired cross-over test meal study with oral stevioside. In kind it is in vivo, human. The settings on record: 1 g stevioside orally with standard meal. An excerpt: Twelve type II diabetic patients (4 female/8 males) with a mean age of 65.8±1.6 years, a diabetes duration of 6.0±1.3 years, a mean body mass index of 28.5±1.0, and a mean glycated hemoglobin HbA1c of 7.4±0.4 percent were included in the study. The experiment was an acute, paired, cross-over study in which two test meals were served during the experiments (A: Standard meal supplemented with 1 g of stevioside given orally; B: Standard meal given together with 1 g of gelatine (placebo) given orally. The total energy content of the test meals was 1725 kJ (protein 16 E %, fat 30 E %, carbohydrate 54 E %). Blood samples were drawn from an antecubital vein 30 minutes before and 240 minutes after ingestion of the test meal. The arterial blood pressure was continuously monitored during the experiment. Students paired t-test was used for comparing the effects of stevioside with placebo on the parameters measured. Data are given as mean±SEM.

Data set [12] deals with GK-rats. The experiment in a line: four-week test diets (stevioside and/or soy) in Goto-Kakizaki rats with glucose tolerance test. It counts as in vivo, rat. The settings on record: 4 weeks, p<0.05. Here is the method: Four test diets (A: Standard carbohydrate rich laboratory animal diet (Altromin); n=12 (Alt). B: Altromin supplemented with stevioside (Altromin+Stevioside); n=12; (Alt+Ste). C: Soy plus 20% Altromin; n=12; (Soy). D: Soy plus 20% Altromin plus stevioside; n=12; (Soy+Ste)) were administered for four weeks to four groups of adult rats. Each experimental group consisted of twelve female Goto-Kakizaki wish an age of 9 weeks. The rats received the stevioside (0.025 g/kg body weight/day) with the drinking water. […] Plasma concentrations of glucose, insulin, and glucagon were measured during the glucose tolerance test. Immediately before the glucose tolerance test fasting levels of triglycerides and cholesterol were determined. Concomitantly, the systolic blood pressure was measured using a tail cuff. (Plasma glucose was measured using MPR 3, 166 391, Glucose/GOD-PAP Method from Boehringer Mannheim) (Plasma insulin was measured using Sensitive Rat Insulin RIA, Cat #SRI-13K from Linco) (Plasma glucagon was measured using Glucagon RIA. Cat #GL-32K from Linco) (Blood pressure was measured using TSE Non-Invasive Blood Pressure Monitoring System from Technical Scientific Equipment GmbK) (Plasma cholesterol was measured GOD-PAP from Roche and triglycerides was measured using GHOD-PAP from Roche)

Data set [13] in a line: stevioside infusion at normal blood glucose. In kind it is in vivo. The settings on record: bolus or constant intravenous infusion.
For data set [14] the following is noted: rats; cited from earlier work.
For data set [15] the following is noted: isolated perfused rat liver; cited from earlier work.
The test system of data set [16] is F344 rats. The settings on record: cited from earlier work.
Data set [17] concerns hamsters. The settings on record: doses as high as 2.5 g/kg body weight/day; cited from earlier work.
For data set [18], the system named is isolated normal pancreatic rat islets. The settings on record: 7 mmol/l D-glucose; stevioside 1.0 mmol/l; cited from earlier work.
For data set [19], the system named is spontaneously hypertensive rats. The settings on record: cited from earlier work.

`C=C1C[C@@]23CC[C@H]4[C@@](C)(CCC[C@@]4(C)C(=O)O)[C@@H]2CC[C@]1(O)C3` [steviol]: in data set [1], the “stimulation of insulin secretion compared with stevioside” value is “to a greater extent”. For the same molecule, in data set [1], the maximal stimulatory dose is listed as 10^−6 mol/l. In [1], the glucose-stimulated insulin secretion result is given as “capable of potentiating glucose-stimulated insulin secretion”. Besides, the “effect when administered intravenously to rats” value in data set [2] was “anti-hyperglycemic, glucagonostatic and insulinotropic effect”. Moreover, the mutagenicity entry in data set [3] is “dose-related positive responses in some mutagenicity test”. The LD50 result is “higher than 15 g/kg body weight” in data set [4]; “higher than 15 g/kg body weight” in data set [5]; 5-6 g/kg body weight in data set [6] (hamster, in vivo). The “finding that accompanied lethality” value in [6] (hamsters, correlated to increases in blood urea nitrogen and creatinine) is on record as “degeneration of the proximal tubular cells”. The mutagenic effect result in data set [7] was “no mutagenic effect”.

In the case of `C=C1C[C@@]23CC[C@H]4[C@@](C)(CCC[C@@]4(C)C(=O)O[C@@H]4O[C@H](CO)[C@@H](O)[C@H](O)[C@H]4O)[C@@H]2CC[C@]1(O[C@@H]1O[C@H](CO)[C@@H](O)[C@H](O)[C@H]1O[C@@H]1O[C@H](CO)[C@@H](O)[C@H](O)[C@H]1O)C3` [stevioside], the “time at which a significant decrease of plasma glucose was observed” value in data set [8] was 30 min. The “blood glucose response to intravenous glucose” value in data set [8] (2 hours) is “inhibited blood glucose responses; also recorded: diminished glucose response”. Besides, the insulin response result in data set [8] (compared to the Wistar rat) is reported as “pronounced increase in the insulin response”. In data set [1], the maximal stimulatory dose is 10^−3 mol/l and the glucose-stimulated insulin secretion entry is “capable of potentiating glucose-stimulated insulin secretion”. The plasma glucagon result in data set [9] is “suppressed”. Besides, the “decrease in the blood pressure (systolic and diastolic, tail)” value in [10] is given as 10-15%. Also, in data set [11] (mean±SEM, p<0.004), the “reduction of the postprandial blood glucose response compared to placebo” value is recorded as 18±5%. In data set [11] (mean±SEM, p<0.02 vs placebo), the “absolute IAUC of postprandial blood glucose” value turned out to be 522±64 mmol/l×240 min. Besides, in data set [11] (mean±SEM, p<0.045 vs placebo), the “postprandial glucagon like peptide-1 (GLP-1) levels” value is recorded as 1529±296. This molecule had a postprandial glucagon levels in data set [11] (mean±SEM, p=0.02 vs placebo) of 281±33. In addition, in data set [11] (p=0.09, not statistically significant), the “insulin response (IAUC)” value is “tended to stimulate the insulin response”. In [12], the “suppression of the systolic blood pressure (Δ), stevioside in combination with Altromin” value is −28 mmHg and the “suppression of the systolic blood pressure (Δ), stevioside in combination with soy” value was −21 mmHg. Further, in [13], the hypoglycemia result is “did not cause any hypoglycemia”. The “effect when administered intravenously to rats” value in data set [2] is “anti-hyperglycemic, glucagonostatic and insulinotropic effect”. Further, the route of excretion entry in data set [14] was “excreted by the urine”. Also, the metabolism result in [15] is “not metabolised”. Moreover, the mutagenicity entry in [3] is reported as “not mutagenic”. The carcinogenicity result in data set [16] is listed as “not carcinogenic”. Also, the “effect on growth or reproduction” value in data set [17] is listed as “no effect on growth or reproduction”. The insulin output entry in data set [18] is “significant increase in insulin output”. Moreover, in [19] (200 mg/kg intravenously (maximum hypotensive effect)), the “fall in the systolic blood pressure” value is “only small”. Moreover, in data set [19] (intravenous stevioside), the heart rate entry was “Neither the heart rate nor the plasma catecholamines were significantly changed” and the plasma catecholamines result was “Neither the heart rate nor the plasma catecholamines were significantly changed”. In addition, the mutagenic effect entry in data set [7] was “no mutagenic effect”.
